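Values below derive from 48-hour exposures of cells grown in 96-well plates, with endpoints linearly interpolated between the two concentrations bracketing the appropriate inhibition level. At the GI50, growth is halved. TGI denotes the concentration required for complete inhibition of growth.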
Experiments:
Assay in all cases: growth of human tumour cells (NCI), 48 h
NCI/ADR-RES ovarian = tested on: NCI/ADR-RES ovarian
786-0 renal = tested on: 786-0 renal
HCT-116 colon = tested on: HCT-116 colon
SK-MEL-5 melanoma = tested on: SK-MEL-5 melanoma
NCI-H460 lung = tested on: NCI-H460 lung
SF-295 CNS = tested on: SF-295 CNS
MDA-MB-435 = tested on: MDA-MB-435
COLO 205 colon = tested on: COLO 205 colon
HOP-92 NSCLC = tested on: HOP-92 NSCLC
LOX IMVI melanoma = tested on: LOX IMVI melanoma
NCI-H522 lung = tested on: NCI-H522 lung
NCI-H23 lung = tested on: NCI-H23 lung
HS 578T breast = tested on: HS 578T breast
CCRF-CEM leukemia = tested on: CCRF-CEM leukemia
SR leukemia = tested on: SR leukemia
BT-549 breast = tested on: BT-549 breast
CAKI-1 renal = tested on: CAKI-1 renal
HL-60(TB) leukemia = tested on: HL-60(TB) leukemia
MDA-MB-231 breast = tested on: MDA-MB-231 breast
MOLT-4 leukemia = tested on: MOLT-4 leukemia
OVCAR-8 ovarian = tested on: OVCAR-8 ovarian
SK-OV-3 ovarian = tested on: SK-OV-3 ovarian
SF-268 CNS = tested on: SF-268 CNS
NCI-H226 lung = tested on: NCI-H226 lung
A498 renal = tested on: A498 renal
PC-3 prostate = tested on: PC-3 prostate
SNB-75 CNS = tested on: SNB-75 CNS
HCC-2998 colon = tested on: HCC-2998 colon
OVCAR-4 ovarian = tested on: OVCAR-4 ovarian
OVCAR-5 ovarian = tested on: OVCAR-5 ovarian
EKVX NSCLC = tested on: EKVX NSCLC
U251 CNS = tested on: U251 CNS
ACHN renal = tested on: ACHN renal
TK-10 renal = tested on: TK-10 renal
DU-145 prostate = tested on: DU-145 prostate
SW-620 colon = tested on: SW-620 colon
HOP-62 NSCLC = tested on: HOP-62 NSCLC
HT29 colon = tested on: HT29 colon
A549 NSCLC = tested on: A549 NSCLC
OVCAR-3 ovarian = tested on: OVCAR-3 ovarian
RXF 393 renal = tested on: RXF 393 renal
KM12 colon = tested on: KM12 colon
SK-MEL-2 melanoma = tested on: SK-MEL-2 melanoma
M14 melanoma = tested on: M14 melanoma
UACC-257 melanoma = tested on: UACC-257 melanoma
K-562 leukemia = tested on: K-562 leukemia
T-47D breast = tested on: T-47D breast
HCT-15 colon = tested on: HCT-15 colon
SF-539 CNS = tested on: SF-539 CNS
MCF7 breast = tested on: MCF7 breast
UO-31 renal = tested on: UO-31 renal

CNCc1ccc(C)c(NC(=O)c2ccc(Nc3nc(-c4ccccc4)c4ccccc4n3)cc2)c1
GI50 (NCI/ADR-RES ovarian): 2250 nM
TGI (NCI/ADR-RES ovarian): 5250 nM
GI50 (786-0 renal): 1760 nM
TGI (786-0 renal): 3300 nM
GI50 (HCT-116 colon): 1680 nM
TGI (HCT-116 colon): 3100 nM
GI50 (SK-MEL-5 melanoma): 1710 nM
TGI (SK-MEL-5 melanoma): 3120 nM
GI50 (NCI-H460 lung): 1800 nM
TGI (NCI-H460 lung): 3380 nM
GI50 (SF-295 CNS): 1840 nM
TGI (SF-295 CNS): 3560 nM
GI50 (MDA-MB-435): 1600 nM
TGI (MDA-MB-435): 3220 nM
GI50 (COLO 205 colon): 1840 nM
TGI (COLO 205 colon): 3570 nM
GI50 (HOP-92 NSCLC): 687 nM
TGI (HOP-92 NSCLC): 3240 nM
GI50 (LOX IMVI melanoma): 1670 nM
TGI (LOX IMVI melanoma): 3130 nM
GI50 (NCI-H522 lung): 1860 nM
TGI (NCI-H522 lung): 3570 nM
GI50 (NCI-H23 lung): 1870 nM
TGI (NCI-H23 lung): 3710 nM
GI50 (HS 578T breast): 1760 nM
TGI (HS 578T breast): 4170 nM
GI50 (CCRF-CEM leukemia): 2070 nM
TGI (CCRF-CEM leukemia): 5430 nM
GI50 (SR leukemia): 1790 nM
TGI (SR leukemia): 4860 nM
GI50 (BT-549 breast): 1840 nM
TGI (BT-549 breast): 3370 nM
GI50 (CAKI-1 renal): 1870 nM
TGI (CAKI-1 renal): 3570 nM
GI50 (HL-60(TB) leukemia): 1920 nM
TGI (HL-60(TB) leukemia): 4330 nM
GI50 (MDA-MB-231 breast): 1740 nM
TGI (MDA-MB-231 breast): 3430 nM
GI50 (MOLT-4 leukemia): 2100 nM
TGI (MOLT-4 leukemia): 4760 nM
GI50 (OVCAR-8 ovarian): 1850 nM
TGI (OVCAR-8 ovarian): 3930 nM
GI50 (SK-OV-3 ovarian): 2180 nM
TGI (SK-OV-3 ovarian): 4080 nM
GI50 (SF-268 CNS): 2090 nM
TGI (SF-268 CNS): 4260 nM
GI50 (NCI-H226 lung): 1980 nM
TGI (NCI-H226 lung): 4900 nM
GI50 (A498 renal): 1530 nM
TGI (A498 renal): 3040 nM
GI50 (PC-3 prostate): 1920 nM
TGI (PC-3 prostate): 4150 nM
GI50 (SNB-75 CNS): 842 nM
TGI (SNB-75 CNS): 2320 nM
GI50 (HCC-2998 colon): 1960 nM
TGI (HCC-2998 colon): 3580 nM
GI50 (OVCAR-4 ovarian): 1840 nM
TGI (OVCAR-4 ovarian): 4790 nM
GI50 (OVCAR-5 ovarian): 2130 nM
TGI (OVCAR-5 ovarian): 4560 nM
GI50 (EKVX NSCLC): 1640 nM
TGI (EKVX NSCLC): 3350 nM
GI50 (U251 CNS): 1540 nM
TGI (U251 CNS): 2960 nM
GI50 (ACHN renal): 2010 nM
TGI (ACHN renal): 3820 nM
GI50 (TK-10 renal): 2120 nM
TGI (TK-10 renal): 4560 nM
GI50 (DU-145 prostate): 2880 nM
TGI (DU-145 prostate): 7650 nM
GI50 (SW-620 colon): 1840 nM
TGI (SW-620 colon): 3570 nM
GI50 (HOP-62 NSCLC): 1960 nM
TGI (HOP-62 NSCLC): 3670 nM
GI50 (HT29 colon): 1860 nM
TGI (HT29 colon): 3980 nM
GI50 (A549 NSCLC): 1780 nM
TGI (A549 NSCLC): 3400 nM
GI50 (OVCAR-3 ovarian): 1900 nM
TGI (OVCAR-3 ovarian): 3840 nM
GI50 (RXF 393 renal): 1510 nM
TGI (RXF 393 renal): 2950 nM
GI50 (KM12 colon): 1970 nM
TGI (KM12 colon): 3880 nM
GI50 (SK-MEL-2 melanoma): 1900 nM
TGI (SK-MEL-2 melanoma): 3660 nM
GI50 (M14 melanoma): 1830 nM
TGI (M14 melanoma): 3400 nM
GI50 (UACC-257 melanoma): 1920 nM
TGI (UACC-257 melanoma): 3730 nM
GI50 (K-562 leukemia): 1910 nM
TGI (K-562 leukemia): 4540 nM
GI50 (T-47D breast): 2260 nM
TGI (T-47D breast): 5590 nM
GI50 (HCT-15 colon): 1690 nM
TGI (HCT-15 colon): 3350 nM
GI50 (SF-539 CNS): 1820 nM
TGI (SF-539 CNS): 3460 nM
GI50 (MCF7 breast): 1580 nM
TGI (MCF7 breast): 3250 nM
GI50 (UO-31 renal): 1670 nM
TGI (UO-31 renal): 3750 nM
